# Measurements published in US11623931B2, “Bicyclic compounds for diagnosis and therapy” (AC IMMUNE SA, priority 2016, dated 2023).
# Legend:
# [1] = molecular target: T1, aSyn aggregates on PD sections (Homo sapiens, UniProt P37840); experiment: Assay 1 (fluorescence based assay): direct staining of human Parkinson's disease brain sections; format: binding; parameters: key: − (No); +/− (very weak); + (weak); ++ (good); +++ (strong); conditions: staining intensity; compound 100 μM, frozen amygdala sections, PD Braak stage V-VI
# T1 construct: 20 μm frozen sections from amygdala were purchased from an external provider (Tissue Solutions Ltd.); tissue Tissue Solutions Ltd; host or cells: human PD amygdala, frozen sections, Braak stage V-VI
# Text: Assay 1 (Fluorescence Based Assay):
# (§1) Direct Staining of Compounds of this Invention to Human Parkinson's Disease Brain Sections
# (§2) 20 μm frozen sections from amygdala were purchased from an external provider (Tissue Solutions Ltd.). Donors were diagnosed with PD, Braak stage V-VI (Braak et al., Neurobiol. Aging, 2003, 24, 197-211) and thus with confirmed aSyn pathology. PD donors, Braak stage V-VI with mixed pathology, containing aSyn aggregates as well as Aβ plaques, were also used in this assay. Sections were kept at −80° C. until start of the experiment.
# (§3) Brain sections were encircled with pap pen liquid blocker to reduce the volume of solution for the different incubations. Sections were fixed for 15 min at 4° C. with 4% paraformaldehyde and washed three times for 5 minutes with PBS (phosphate buffered saline) at room temperature. Test compounds were incubated on the sections at 100 μM in 50% ethanol in water for 30 min at room temperature, followed by three washes of 5 minutes with PBS. Sections were then saturated and permeabilized in blocking buffer (PBS, 10% NGS, 0.25% Triton) for 1 hour at room temperature and then incubated for 2 hours at room temperature with the primary antibodies against aSyn: aSyn-211 (SantaCruz Biotechnology sc-12767) or aSyn-pS129 (Abcam AB51253), and primary antibody against AR, 4G8, (Covance, SIG-39220). All primary antibodies diluted 1/250 in PBS, 5% NGS, 0.25% Triton. After three washes in PBS, the sections were incubated for 30 minutes at room temperature with a secondary anti-mouse antibody labeled with AlexaFluor555 (Invitrogen A21422) or anti-rabbit antibody labeled with AlexaFluor555 (Invitrogen A21428) and further washed three times in PBS. To reduce auto-fluorescence of the tissue, the sections were incubated in a solution of 0.1% Sudan Black (Sigma 199664) in 70% ethanol for 15 min at room temperature, followed by four washes with PBS and mounted under cover slips using ProLong Gold Antifade reagent (Invitrogen P36930).
# (§4) Sections were analyzed on the Nikon Eclipse Ti microscope to detect staining and imaged using Nikon DS-Fi2 camera and NIS-Element AR4.13.1 software.
# [2] = test system: Aβ plaques on PD sections with mixed pathology; experiment: Assay 1 (fluorescence based assay): direct staining of PD brain sections with mixed pathology; format: binding, human; parameters: key: − (No); +/− (very weak); + (weak); ++ (good); +++ (strong); conditions: staining intensity; compound 100 μM, frozen amygdala sections, PD Braak stage V-VI with aSyn aggregates and Aβ plaques
# Description: as §1, §2, §3, §4
SMILES,Staining of aSyn aggregates on PD sections [1],Staining of Aβ plaques on PD sections with mixed pathology [2]
Nc1ccc(-c2cc3ccc(-c4ccc(F)nc4)nc3s2)cn1 [Example 105],+++,++
CNc1ccc(-c2cc3ccc(-c4ccc(F)nc4)nc3s2)cc1F [Example 106],+++,+++
Fc1nc(N2CCCC2)ccc1-c1ccc2cc(-c3cncnc3)sc2n1 [Example 110],+,+++
CNc1ccc(-c2cc3ccc(-c4ccc(N5CC[C@@H](F)C5)nc4)nc3s2)cc1F [Example 111],+++,+++
F[C@H]1CCN(c2ccc(-c3ccc4cc(-c5cccnc5)sc4n3)cn2)C1 [Example 112],+,++
CNc1ccc(-c2cc3ccc(-c4ccc(N5CC[C@H](F)C5)nc4)nc3s2)cc1F [Example 113],+,++
O=C1NCCc2nc(N3CC[C@H](F)C3)sc21 [Example 119],+,−
O=C1COCCN1c1ccc2nc(-c3cnn(CCF)c3)sc2c1 [Example 125],+,+
N#Cc1ccc2sc(-c3ccc(N4CCCC4)nc3F)nc2n1 [Example 131],++,+++
F[C@H]1CCCN(c2ccc(-c3nc4nc(-n5ccnc5)ccc4s3)cn2)C1 [Example 132],++,+/−

# More lines, main results first:
Staining of aSyn aggregates on PD sections [1],SMILES,Staining of Aβ plaques on PD sections with mixed pathology [2]
++,F[C@H]1CCCN(c2ccc(-c3nc4ncc(-c5cccnc5)cc4s3)cn2)C1 [Example 101],+
++,Fc1ncccc1-c1ccc2sc(-c3ccc(N4CCCC4)nc3)nc2n1 [Example 108],+/−
++,Fc1ccc(-c2ccc3sc(-c4ccc(N5CCCC5)nc4)nc3n2)cn1 [Example 109],+/−
+++,F[C@@H]1CCN(c2ccc(-c3ccc4cc(-c5cn[nH]c5)sc4n3)cn2)C1 [Example 114],+++
+,O=C1NCCc2nc(-c3ccc(N4CC[C@H](F)C4)nc3)sc21 [Example 118],+
+,F[C@@H]1CCCN(c2ccc(-c3nc4ncc(N5CCOCC5)cc4s3)cn2)C1 [Example 123],+
++,O=C1CN(CCF)CCN1c1ccc2nc(-c3ccc(N4CCCC4)nc3)sc2c1 [Example 128],++
++,O=C1c2sc(-c3ccc(N4CC[C@@H](F)C4)nc3)nc2CCN1c1cccnc1 [Example 129],+++
++,O=C1c2sc(-c3ccc(N4CC[C@H](F)C4)nc3)nc2CCN1c1cccnc1 [Example 130],+++
